# Data taken from US7781421B2, “Neuroactive 13, 24-cyclo-18, 21-dinorcholanes and structurally related pentacyclic steriods” (Washington University, priority 2003, dated 2010).
# Read-outs that look alike come from different tables or passages of the source.
# Columns and labels:
# Xenopus laevis tadpoles = assay: Tadpole loss of righting (LRR) and swimming (LSR) reflexes; format: in vivo; conditions: 3 h equilibration at room temperature; for EC50: read-out: LSR EC50 (loss of swimming response)
# Procedure: Tadpole LRR was measured as described previously. (See, Wittmer, L. L., et al., Enantioselectivity of steroid-induced γ-aminobutyric acidA receptor modulation and anesthesia, Mol. Phar., 1996, 50:1581-1586). Briefly, groups of 10 early prelimb-bud stage Xenopus laevis tadpoles (Nasco, Fort Atkinson, Wis.) were placed in 100 mL of oxygenated Ringer's stock solution containing various concentrations of compound. Compounds were added from a 10 mM DMSO stock (final concentration of DMSO in test solutions ≦0.1%). After equilibrating at room temperature for 3 h, tadpoles were evaluated using the LRR and LSR behavioral endpoints. LRR was defined as failure of the tadpole to right itself within 5 sec after being flipped by a smooth glass rod. LSR was defined as failure of the tadpole to swim when touched by a smooth glass rod. In general, the tadpoles regained their righting and swimming reflexes when placed in fresh oxygenated Ringer's solution. Control beakers containing up to 0.6% DMSO produced no LRR or LSR in tadpoles.
# Tadpole LRR and LSR concentration-response curves were fit using Sigma Plot version 3.0 to the Hill equation f=Rmax/{1+([conc]/EC50)^n}
# where Rmax is the maximum effect, [conc] is the steroid concentration, EC50 is the half-maximal effective concentration, and n is the Hill coefficient.
# [1] = target: GABAA receptor ([35S]-TBPS binding site, rat brain cortical membranes); assay: Displacement of [35S]-TBPS binding, rat brain cortical membranes; conditions: 5 μM GABA, 2 nM [35S]-TBPS; ± standard error of the means
# Procedure: Rat brain cortical membranes were prepared with minor modifications of the method previously reported. (Hawkinson, J. E., et al., Correlation of Neuroactive Steroid Modulation of [^35S]t-Butylbicyclophosophorothionate and [^3H]Flunitrazepam Binding and γ-Aminobutyric AcidA Receptor Function, Mol. Pharmacol., 1994, 46, 977-985). Briefly, frozen rat cerebral cortices (Pel-freez, Rogers, Ak.) were thawed and homogenized in 10 volumes of ice-cold 0.32 M sucrose using a glass/Teflon pestle. The homogenate was centrifuged at 1500×g for 10 min at 4° C. The resultant supernatant was centrifuged at 10,000×g for 30 min at 4° C. The pellet (P2) from this centrifugation was resuspended in 200 mM NaCl, 50 mM potassium phosphate buffer, pH 7.4, and centrifuged at 10,000×g for 20 min at 4° C. This washing procedure was done a total of three times, and then pellets were resuspended in buffer (˜4 mL/brain) using a glass/Teflon pestle. The membrane suspension was aliquoted, frozen in liquid nitrogen, and stored at −80° C. prior to use.
# [^35S]-TBPS Binding assays were done according to the procedure described previously (Hawkinson, J. E., et al., Correlation of Neuroactive Steroid Modulation of [^35S]t-Butylbicyclophosophorothionate and [^3H]Flunitrazepam Binding and γ-Aminobutyric AcidA Receptor Function, Mol. Pharmacol., 1994, 46, 977-985) with modifications. Briefly, aliquots of membrane solution (0.5 mg/mL final protein concentration in assay) were incubated with 5 μM GABA, 2 nM [^35S]-TBPS (45-120 Ci/mmol), and 5 μL aliquots of steroid in DMSO solution (final assay concentrations ranged from 1 nM to 10 μM), and brought to a final volume of 1 mL with 200 mM NaCl, 50 mM potassium phosphate buffer, pH 7.4. […] Assay tubes were incubated for 2 hr at room temperature. A Brandel (Gaithersburg, Md.) cell harvester was used for filtration of the assay tubes through Whatman/GF/C glass filter paper. Filter paper was rinsed with 4 mL of ice-cold buffer three times. Radioactivity bound to the filters was read by liquid scintillation counter and data was fit using Sigma Plot version 3.0 to the Hill equation i. f=Rmax/{1+([conc]/IC50)^n}
# Where Rmax is the maximal effect, [conc] is steroid concentration, IC50 is the half-maximal inhibitor concentration and n is the Hill coefficient. Each data point was determined in triplicate and 2-3 full concentration-response curves were generated for each steroid.
# [2] = target: T1, rat α1β2γ2 GABAA Receptor (Rattus norvegicus, UniProt P18508+P62813+P63138, INS375LLRMFSFK); assay: Xenopus oocyte two-electrode voltage-clamp electrophysiology; format: cell-based; conditions: for Oocyte electrophysiology, ratio of currents in presence/absence of compound, 0.1 μM: 0.1 μM compound co-applied with 2 μM GABA; for Oocyte electrophysiology, ratio of currents in presence/absence of compound, 0.1 μM / Oocyte electrophysiology, ratio of currents in presence/absence of compound, 1 μM / Oocyte electrophysiology, ratio of currents in presence/absence of compound, 10 μM: −70 mV; for Oocyte electrophysiology, ratio of currents in presence/absence of compound, 1 μM: 1 μM compound co-applied with 2 μM GABA; for Oocyte electrophysiology, ratio of currents in presence/absence of compound, 10 μM: 10 μM compound co-applied with 2 μM GABA; for Gating (10 μM), ratio of compound only current/2 μM GABA current: direct current gated by 10 μM compound in the absence of GABA
# T1 construct: from linearized pBluescript vectors containing receptor coding regions; expressed in transfected cells; host or cells: Xenopus laevis oocytes injected with in vitro transcribed capped mRNA
# Procedure: Stage V-VI oocytes were harvested from sexually mature female Xenopus laevis (Xenopus One, Northland, Mich.) under 0.1% tricaine (3-aminobenzoic acid ethyl ester) anesthesia. Oocytes were defolliculated by shaking for 20 min at 37° C. in collagenase (2 mg/ml) dissolved in calcium-free solution containing (in mM): 96 NaCl, 2 KCl, 1 MgCl2, and 5 HEPES at pH 7.4. Capped mRNA, encoding rat GABAA receptor α1, β2 and γ2L subunits was transcribed in vitro using the mMESSAGE mMachine Kit (Ambion, Austin, Tex.) from linearized pBluescript vectors containing receptor coding regions. Subunit transcripts were injected in equal parts (20-40 ng total RNA) 8-24 hours following defolliculation. Oocytes were incubated up to 5 days at 18° C. in ND96 medium containing (in mM): 96 NaCl, 1 KCl, 1 MgCl2, 2 CaCl2 and 5 HEPES at pH 7.4, supplemented with pyruvate (5 mM), penicillin (100 U/ml), streptomycin (100 μg/ml) and gentamycin (50 μg/ml). The cDNAs for the rat GABAA-receptor subunits were originally provided by A. Tobin, University of California, Los Angels (α1), P. Malherbe, Hoffman-La Roche, Switzerland (β2), C. Fraser, National Institute on Alcohol Abuse and Alcoholism (γ2L).
# Two-electrode voltage-clamp experiments were performed with a Warner OC725 amplifier 2-5 days following RNA injection. The extracellular recording solution was ND96 medium with no supplements. Intracellular recording pipettes were filled with 3 M KCl and had open tip resistances of ˜1 MΩ. Drugs were applied from a common tip via a gravity-driven multibarrel drug-delivery system. Steroids were simultaneously co-applied with GABA. Cells were clamped at −70 mV for all experiments, and peak current during 20 s drug applications was measured. Data acquisition and analysis were performed with pCLAMP software (Axon Instruments, California). Statistical differences were determined using a two-tailed Student's t-test.
# The GABA concentration used for the control response was 2 μM. Each compound was evaluated on at least four different oocytes at the concentrations indicated, and the results reported are the ratio of the currents measured in the presence/absence of added compound. (G) represents direct current gated by 10 μM compound in the absence of GABA, and this current is reported as the ratio of compound only current/2 μM GABA current. Error limits are calculated as standard error of the means.
# T1 sequence (P62813 28-455, stated change not applied): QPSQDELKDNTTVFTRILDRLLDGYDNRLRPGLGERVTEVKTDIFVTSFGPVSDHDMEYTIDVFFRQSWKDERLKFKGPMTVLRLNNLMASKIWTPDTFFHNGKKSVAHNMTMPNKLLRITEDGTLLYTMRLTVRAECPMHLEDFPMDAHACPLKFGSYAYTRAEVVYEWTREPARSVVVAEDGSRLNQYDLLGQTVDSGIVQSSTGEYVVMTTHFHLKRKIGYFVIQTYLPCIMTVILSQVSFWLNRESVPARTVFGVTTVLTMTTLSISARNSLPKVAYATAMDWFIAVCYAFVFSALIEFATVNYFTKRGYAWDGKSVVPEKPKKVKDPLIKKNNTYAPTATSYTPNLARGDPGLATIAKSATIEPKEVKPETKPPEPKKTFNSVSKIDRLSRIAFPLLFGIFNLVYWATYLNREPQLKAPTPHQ
# T1 sequence (P63138 26-474, stated change not applied): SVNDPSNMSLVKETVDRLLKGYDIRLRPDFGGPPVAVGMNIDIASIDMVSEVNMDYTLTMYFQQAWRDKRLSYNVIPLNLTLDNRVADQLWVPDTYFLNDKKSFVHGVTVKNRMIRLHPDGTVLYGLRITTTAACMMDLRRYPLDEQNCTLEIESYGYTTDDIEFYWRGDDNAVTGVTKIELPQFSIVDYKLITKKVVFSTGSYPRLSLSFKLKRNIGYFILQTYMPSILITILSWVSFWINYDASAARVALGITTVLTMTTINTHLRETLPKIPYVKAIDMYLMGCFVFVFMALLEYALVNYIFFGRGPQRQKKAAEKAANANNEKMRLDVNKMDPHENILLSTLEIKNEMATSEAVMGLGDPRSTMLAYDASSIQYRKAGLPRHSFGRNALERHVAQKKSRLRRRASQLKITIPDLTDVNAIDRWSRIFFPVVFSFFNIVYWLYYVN
# T1 sequence (P18508 with tags, fused parts or gaps INS375LLRMFSFK): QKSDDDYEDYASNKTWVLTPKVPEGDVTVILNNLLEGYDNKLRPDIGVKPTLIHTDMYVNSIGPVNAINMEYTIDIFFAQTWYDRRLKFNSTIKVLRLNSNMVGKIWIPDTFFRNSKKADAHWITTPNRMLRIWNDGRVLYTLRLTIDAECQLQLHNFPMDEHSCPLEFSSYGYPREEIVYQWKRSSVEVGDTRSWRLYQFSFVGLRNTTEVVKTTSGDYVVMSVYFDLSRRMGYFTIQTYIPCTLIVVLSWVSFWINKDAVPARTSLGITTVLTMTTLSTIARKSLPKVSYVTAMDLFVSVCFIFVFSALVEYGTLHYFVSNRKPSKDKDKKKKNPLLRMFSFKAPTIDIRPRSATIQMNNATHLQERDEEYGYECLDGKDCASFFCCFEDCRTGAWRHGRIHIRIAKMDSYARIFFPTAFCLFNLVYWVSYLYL
Compound,LRR ED50 (loss of righting response) (Xenopus laevis tadpoles),EC50 (Xenopus laevis tadpoles),IC50 [1],"Oocyte electrophysiology, ratio of currents in presence/absence of compound, 0.1 μM [2]","Oocyte electrophysiology, ratio of currents in presence/absence of compound, 1 μM [2]","Oocyte electrophysiology, ratio of currents in presence/absence of compound, 10 μM [2]","Gating (10 μM), ratio of compound only current/2 μM GABA current [2]",melting point,"EC50 (Xenopus laevis tadpoles; Xenopus laevis, 3 h)",LSR EC50 (loss of swimming response) (Xenopus laevis tadpoles)
"CC12CCC(O)CC1CCC1C2CCC23C(=O)CCCC2CCC13 (stereo not drawn) [Compound 5a, (3α,5α)-3-Hydroxy-13,24-cyclo-18,21-dinorcholan-24-one]",0.32 ± 0.02 µM,1.73 ± 0.03 µM,0.301 ± 0.02 µM,1.22 ± 0.23,3.05 ± 0.79,10.73 ± 1.87,0.39 ± 0.69,203 to 204 °C,,
"CC12CCC(O)CC1CCC1C2CCC23C(=O)CCCC2CCC13 (stereo not drawn) [Compound 5b, (3α,5β)-3-Hydroxy-13,24-cyclo-18,21-dinorcholan-24-one]",0.40 ± 0.12 µM,,0.329 ± 0.035 µM,1.26 ± 0.05,3.45 ± 0.29,10.42 ± 1.65,0.04 ± 0.02,177 to 178 °C,0.89 µM,
"CC12CCC(O)CC1CCC1C2CCC23CC=CC(=O)C2CCC13 (stereo not drawn) [Compound 11a, (3α,5α)-3-Hydroxy-13,24-cyclo-18,21-dinorchol-22-en-20-one]",3.38 ± 0.67 µM,,0.373 ± 0.02 µM,1.49 ± 0.20,5.87 ± 1.52,9.07 ± 1.86,0.72 ± 0.03,230 to 232 °C,,None @ 10
"CC12CCC(O)CC1CCC1C2CCC23CC=CC(=O)C2CCC13 (stereo not drawn) [Compound 11b, (3α, 5β)-3-Hydroxy-13,24-cyclo-18,21-dinorchol-22-en-20-one]",2.56 ± 1.39 µM,,1.57 µM,1.07 ± 0.17,1.17 ± 0.11,2.34 ± 0.37,0.11 ± 0.04,253 to 254 °C,8.95 ± 0.01 µM,
"CC12CCC(O)CC1CCC1C2CCC23CCC=CC2CCC13 (stereo not drawn) [Compound 13a, (3α,5α)-13,24-Cyclo-18,21-dinorchol-20(22)-en-3-ol]",>10 µM,,0.569 ± 0.028 µM,1.53 ± 0.45,2.12 ± 0.40,2.68 ± 0.42,−0.32 ± 0.15,169 to 170 °C,,None @ 10
"CC12CCC(O)CC1CCC1C2CCC23CCC=CC2CCC13 (stereo not drawn) [Compound 13b, (3α,5β)-13,24-Cyclo-18,21-dinorchol-20(22)-en-3-ol]",1.28 ± 1.80 µM,,0.484 ± 0.103 µM,1.44 ± 0.17,2.09 ± 0.35,3.48 ± 1.01,−0.05 ± 0.09,168 to 169 °C,> 10 µM,
"CC12CCC(O)CC1CCC1C2CCC23CC4OC4C(=O)C2CCC13 [Compound 19a, (3α,5α,22S,23S)-22,23-Epoxy-3-hydroxy-13,24-cyclo-18,21-dinorcholan-20-one]",1.75 ± 0.46 µM,,0.37 ± 0.042 µM,1.47 ± 0.17,1.92 ± 0.23,8.90 ± 2.10,0.23 ± 0.24,238 to 240 °C,10 µM,
"CC12CCC(O)CC1CCC1C2CCC23CC4OC4C(=O)C2CCC13 [Compound 19b, (3α,5α,22R,23R)-22,23-Epoxy-3-hydroxy-13,24-cyclo-18,21-dinorcholan-20-one]",0.96 ± 0.29 µM,10 µM,0.313 ± 0.018 µM,1.13 ± 0.02,2.11 ± 0.26,5.47 ± 0.62,0.21 ± 0.02,194 to 195 °C,,
